Experimental data taken from publication PMC11322497 (Frontiers in Pharmacology, 2024).

Tests used:
[1] = test system: high fat diet (HFD) rabbit model of metabolic-associated steatohepatitis (MASH); test: HFD rabbit study, prolonged 4-week treatment: protein expression in liver homogenates; assay type: in vivo, New Zealand White rabbits; conditions: HFD rabbits, weeks 9–12, mean±SD, n=3
Experimental: After 1 week (W) of RD, the animals (n = 44) were randomly assigned to the following groups (Table 1B): • Control rabbits continued to receive a RD for 12 weeks and were treated with vehicle for 5 days a week (days 1–5, p.o.) during the last 4 weeks before culling (RD + 4W Veh group); • Rabbits received a HFD for 8 weeks and were culled (HFD 8W group); • Rabbits received a HFD for 12 weeks and were treated with vehicle for 5 days a week (days 1–5, p.o.) during the last 4 weeks before culling (HFD+4W Veh group); • Rabbits received a HFD for 12 weeks and were treated with GB1211 (0.3 mg/kg) for 5 days a week (days 1–5, p.o.) during the last 4 weeks before culling (HFD + 4W 0.3 mg group); • Rabbits received a HFD for 12 weeks and were treated with GB1211 (1.0 mg/kg) for 5 days a week (days 1–5, p.o.) during the last 4 weeks before culling (HFD + 4W 1.0 mg group); • Rabbits received a HFD for 12 weeks and were treated with GB1211 (5.0 mg/kg) for 5 days a week (days 1–5, p.o.) during the last 4 weeks before culling (HFD + 4W 5.0 mg group).
Quantitative analyses of collagen, IL6 and TNFα expression in liver biopsies were carried out using available commercial assays. Collagen content was evaluated in liver homogenates employing the Sircol S2000 assay (Biocolor, Carrickfergus, United Kingdom), in accordance with manufacturer’s protocols. Briefly, 30 mg liver biopsies were fragmented in the appropriate reagent and the supernatant was bound to a dye reagent containing Sirius Red, which would generate a colorimetric reaction quantified as absorbance using an internal collagen standard curve. IL6 and TNFα were quantified in liver homogenates using ELISA assay kits (both from Cloud-Clone Corp, Katy, TX). Briefly, 50 mg liver biopsies were homogenized in proprietary lysis buffer and the supernatants were analyzed by sandwich immunoassays, following the producer’s instructions.

[2] = test system: high fat diet (HFD) rabbit model of metabolic-associated steatohepatitis (MASH); test: HFD rabbit study, acute 5-day treatment: liver markers mRNA expression by RT-PCR; assay type: in vivo, New Zealand White rabbits; conditions: 30 mg/kg p.o. 5 days, week 12, mean ± SD, n = 3
Experimental: After 1 week of standard diet, animals (n = 12) were randomly assigned to the following groups (Table 1A): • Control rabbits continued to receive a regular diet (RD) for 12 weeks and were treated for 5 days (days 1–5, p.o.), during the last week before culling, with either vehicle; RD+1W Veh group] or GB1211 (30 mg/kg; RD + 1W 30 mg group); • Rabbits received a high fat diet (HFD) for 12 weeks (RD implemented with 0.5% cholesterol and 2.5% vegetable fat) and were treated for 5 days (days 1–5, p.o.), during the last week before culling, with either vehicle (HFD + 1W Veh group) or GB1211 (30 mg/kg; HFD + 1W 30 mg group).
TRIzol reagent (Life Technologies, Paisley, United Kingdom) and/or RNeasy Mini Kit (Qiagen, Hilden, Germany) were used to isolate total RNA from rabbit liver specimens. RNA concentration and quality were measured using a Nanodrop ND-1000 (Thermo Fisher Scientific) at 260 nm and 280 nm. The OD 260/280 absorbance ratios were between 2.0 and 2.1 for all samples, to confirm RNA integrity and purification. cDNA synthesis was carried out using the iScript™ cDNA Synthesis Kit (Bio-Rad Laboratories, Hercules, CA), with 100 ng of mRNA in 20 µL reaction volume in accordance with the following protocol: 5 min at 25°C, 20 min at 46°C and 5 min at 85°C, followed by refrigeration at 4°C.
Semi-quantitative real-time RT-PCR (qRT-PCR) amplification and detection was performed with SsoAdvanced™ universal SYBR® Supermix and a CFX96 Two-Color Real-Time PCR Detection System (both Bio-Rad Laboratories) with the following thermal cycler conditions: 40 cycles at 95°C for 15 s and 60°C for 1 min. Specific PCR primers for rabbit target genes were designed on sequences available at the National Center for Biotechnology Information GenBank (http://www.ncbi.nlm.nih.gov) or Ensemble Genome (http://www.ensembl.org).
The 18S ribosomal RNA subunit was quantified with a predeveloped assay (Hs99999901_s1, Life Technologies) and used as the housekeeping gene for the relative quantitation of the target genes based on the comparative threshold cycle (Ct) 2^−ΔΔCt method ([Livak and Schmittgen, 2001]), with some modifications. In detail, we used the vehicle control groups as the calibrator in each analysis, so that the calculations would provide the fold-change of the other groups relative to controls.

Q: Which results are given for OC[C@H]1O[C@H](Sc2cncc(Br)c2)[C@H](O)[C@@H](n2cc(-c3cc(F)c(F)c(F)c3)nn2)[C@H]1O [selvigaltin]?
A: Collagen protein in liver homogenate ([1]; 0.3 mg/kg p.o.): 57.63 ± 2.73 µg/mg Liver; IL6 protein in liver homogenate ([1]; 0.3 mg/kg p.o.): 76.12 ± 8.47 pg/g Liver; TNFα protein in liver homogenate ([1]; 0.3 mg/kg p.o.): 1.61 ± 0.54 pg/mg Liver; Collagen protein in liver homogenate ([1]; 1.0 mg/kg p.o.): 45.25 ± 3.42 µg/mg Liver; IL6 protein in liver homogenate ([1]; 1.0 mg/kg p.o.): 63.53 ± 20.39 pg/g Liver; TNFα protein in liver homogenate ([1]; 1.0 mg/kg p.o.): 1.24 ± 0.58 pg/mg Liver; Collagen protein in liver homogenate ([1]; 5.0 mg/kg p.o.): 50.86 ± 5.22 µg/mg Liver; IL6 protein in liver homogenate ([1]; 5.0 mg/kg p.o.): 64.27 ± 18.36 pg/g Liver; TNFα protein in liver homogenate ([1]; 5.0 mg/kg p.o.): 1.33 ± 0.68 pg/mg Liver; CD8 liver mRNA expression ([2]; HFD rabbits): 1.76 ± 0.20 fold-change vs. RD+1W Veh; COL1A1 liver mRNA expression ([2]; HFD rabbits): 20.12 ± 15.24 fold-change vs. RD+1W Veh; COL3A1 liver mRNA expression ([2]; HFD rabbits): 9.96 ± 7.51 fold-change vs. RD+1W Veh; COX-2 liver mRNA expression ([2]; HFD rabbits): 8.81 ± 10.30 fold-change vs. RD+1W Veh; EDN1 liver mRNA expression ([2]; HFD rabbits): 1.32 ± 0.21 fold-change vs. RD+1W Veh; EDNRA liver mRNA expression ([2]; HFD rabbits): 7.73 ± 5.69 fold-change vs. RD+1W Veh; EDNRB liver mRNA expression ([2]; HFD rabbits): 2.23 ± 0.95 fold-change vs. RD+1W Veh; FN1 liver mRNA expression ([2]; HFD rabbits): 0.98 ± 0.14 fold-change vs. RD+1W Veh; FOXP3 liver mRNA expression ([2]; HFD rabbits): 5.15 ± 2.78 fold-change vs. RD+1W Veh; IGF-1 liver mRNA expression ([2]; HFD rabbits): 0.34 ± 0.08 fold-change vs. RD+1W Veh; LGALS3 liver mRNA expression ([2]; HFD rabbits): 116.95 ± 77.56 fold-change vs. RD+1W Veh; PAI-1 liver mRNA expression ([2]; HFD rabbits): 14.10 ± 16.47 fold-change vs. RD+1W Veh; SNAI2 liver mRNA expression ([2]; HFD rabbits): 1.55 ± 0.26 fold-change vs. RD+1W Veh; TBET liver mRNA expression ([2]; HFD rabbits): 0.74 ± 0.14 fold-change vs. RD+1W Veh; TGFβ1 liver mRNA expression ([2]; HFD rabbits): 4.25 ± 2.06 fold-change vs. RD+1W Veh; TGFβ3 liver mRNA expression ([2]; HFD rabbits): 2.97 ± 1.96 fold-change vs. RD+1W Veh; αSMA liver mRNA expression ([2]; HFD rabbits): 5.77 ± 3.34 fold-change vs. RD+1W Veh; CD8 liver mRNA expression ([2]; RD rabbits): 1.14 ± 0.81 fold-change vs. RD+1W Veh; COL1A1 liver mRNA expression ([2]; RD rabbits): 0.82 ± 0.40 fold-change vs. RD+1W Veh; COL3A1 liver mRNA expression ([2]; RD rabbits): 0.47 ± 0.21 fold-change vs. RD+1W Veh; COX-2 liver mRNA expression ([2]; RD rabbits): 2.52 ± 1.59 fold-change vs. RD+1W Veh; EDN1 liver mRNA expression ([2]; RD rabbits): 0.91 ± 0.20 fold-change vs. RD+1W Veh; EDNRA liver mRNA expression ([2]; RD rabbits): 0.89 ± 0.29 fold-change vs. RD+1W Veh; EDNRB liver mRNA expression ([2]; RD rabbits): 0.79 ± 0.19 fold-change vs. RD+1W Veh; FN1 liver mRNA expression ([2]; RD rabbits): 1.05 ± 0.12 fold-change vs. RD+1W Veh; FOXP3 liver mRNA expression ([2]; RD rabbits): 0.86 ± 0.12 fold-change vs. RD+1W Veh; IGF-1 liver mRNA expression ([2]; RD rabbits): 1.01 ± 0.19 fold-change vs. RD+1W Veh; LGALS3 liver mRNA expression ([2]; RD rabbits): 1.27 ± 1.04 fold-change vs. RD+1W Veh; PAI-1 liver mRNA expression ([2]; RD rabbits): 2.63 ± 1.79 fold-change vs. RD+1W Veh; SNAI2 liver mRNA expression ([2]; RD rabbits): 1.01 ± 0.31 fold-change vs. RD+1W Veh; TBET liver mRNA expression ([2]; RD rabbits): 0.75 ± 0.20 fold-change vs. RD+1W Veh; TGFβ1 liver mRNA expression ([2]; RD rabbits): 0.95 ± 0.31 fold-change vs. RD+1W Veh; TGFβ3 liver mRNA expression ([2]; RD rabbits): 0.70 ± 0.08 fold-change vs. RD+1W Veh; αSMA liver mRNA expression ([2]; RD rabbits): 0.96 ± 0.59 fold-change vs. RD+1W Veh
